US20260133203A1, “DETECTION OF FUMARATE-DERIVED MODIFICATION IN A TEST SAMPLE” (UNIVERSITY OF SOUTH CAROLINA, priority 2017, published 2026)
Where a name gives a salt, the structure may show the parent alone.

System: rat primary neurons
Test: Western blot detection of succinated proteins with anti-2SC antibody, without ester hydrolysis
Assay type: cell-based
Conditions: 100 μM DMF, 24 hours, absence of ester hydrolysis
Experimental: Primary neurons from newborn rat brain cortices were isolated and cultured using an adaptation of methods described previously. Briefly, postnatal day 1 rats were sacrificed by decapitation, the brains were aseptically dissected, and cortices were separated from the rest of the brain in ice-cold Hibernate®-A medium (Life Technologies) containing 2% (v/v) B-27 supplement (Life Technologies) and 0.5 mM glutamine (Invitrogen™). The tissue was minced in fragments of about 1 mm3 with a scalpel and subjected to digestion with 2 mg/ml papain (Worthington) in the supplemented Hibernate®-A medium for 20 minutes at 30° C. in a shaker incubator set at 100 rpm. After thorough trituration through a fire-polished Pasteur pipette, the tissue was allowed to settle for 5 minutes and the supernatant was carefully layered on top of a discontinuous OptiPrep™ (Sigma-Aldrich™) gradient prepared in Hibernate®-A medium; the layers contained 35, 25, 20 and 15% OptiPrep™. […] After a centrifugation at 500 g for 5 min at room temperature, cells were resuspended in Neurobasal™—A medium containing 0.5 mM glutamine, 2% B-27 supplement, and 5 ng/ml bFGF (Invitrogen™); counted and plated on 24-well plates pretreated with 0.01% poly-L-lysine (Sigma-Aldrich™) at a density of 200,000 cells/well. […] The protein content in the different samples was determined by the Lowry assay. […]

## COC(=O)/C=C/C(=O)OC [DMF, dimethyl fumarate]
  detection of succinated proteins using the anti-2SC antibody: only one band ˜50 kDa showing a significant increase in intensity
